Laboratory results from the Deep4Chem optical property database.
Values joined by “and” are separate entries in the source; they are usually repeats but may differ in a detail not shown here. Identical values can stand only once.

Test: solvent given as SMILES

## O=c1oc2ccc3ccc(O)cc3c2nc1-c1ccccc1
In c1ccccc1
  fluorescence lifetime: 4.8 ns

## C(=C\c1nc2c3ccccc3c3ccccc3c2o1)/c1ccccc1
In CC#N
  fluorescence lifetime: 1.83 ns

## CCC1=C(C)C2=C(c3cc(C(=O)Cl)cc(C4=C5C(C)=C(CC)C(C)=[N+]5[B-](F)(F)n5c(C)c(CC)c(C)c54)c3)c3c(C)c(CC)c(C)n3[B-](F)(F)[N+]2=C1C
In CN(C)C=O
  fluorescence lifetime: 4.1 ns

## O=C1/C(=C2\Sc3ccc(S(=O)(=O)Cl)cc3C2=O)Sc2ccc(S(=O)(=O)Cl)cc21
In C1COCCO1
  fluorescence lifetime: 12 ns
In CS(C)=O
  fluorescence lifetime: 0.17 ns

## CC[n+]1nc2cc3c4c(c2c2cc(F)ccc21)CCCN4CCC3
In O
  fluorescence lifetime: 4.4 ns

## CC(=O)Nc1ccc2c(c1)c(=O)c1ccccc1n2CCCCCC(=O)O
In O
  fluorescence lifetime: 17.1 ns

## CN(C)c1ccc2c(c1)C(=O)c1ccccc1-2
In C1CCCCC1
  fluorescence lifetime: 3.3 ns
In c1ccccc1
  fluorescence lifetime: 0.79 ns

## CCCCn1c(-c2ccc(-c3nnc(-c4ccccc4)o3)cc2)nc2c3ccccc3c3ccccc3c21
In ClCCl
  fluorescence lifetime: 1.84 ns

## O=C1NC(=O)c2ccc(N3CCCCC3)c3cccc1c23
In C1CCOC1
  fluorescence lifetime: 7.02 ns
In ClC(Cl)Cl
  fluorescence lifetime: 8.86 ns
In ClCCl
  fluorescence lifetime: 7.02 ns

## CC1=C(c2cccs2)C(C)=[N+]2C1=C(c1ccccc1)c1c(C)c(-c3cccs3)c(C)n1[B-]2(F)F
In Cc1ccccc1
  fluorescence lifetime: 3.4 ns

## CCN(CC)c1ccc(-c2nc3c(nc2-c2ccc(B(c4c(C)cc(C)cc4C)c4c(C)cc(C)cc4C)cc2)c2ccccc2n3C)cc1
In C1CCOC1
  fluorescence lifetime: 2.33 ns

## Cc1ccccc1[B-]1(c2ccccc2C)n2nc(C(F)(F)F)cc2-c2c3ccccc3cc[n+]21
In C1CCCCC1
  fluorescence lifetime: 0.525 ns
In Cc1ccccc1
  fluorescence lifetime: 0.425 ns
In ClCCl
  fluorescence lifetime: 0.938 ns

## CSc1ccc2c(c1)N(CCCN1CCN(C)CN1C)c1ccccc1S2
In CC#N
  fluorescence lifetime: 1.03 ns
In CO
  fluorescence lifetime: 0.96 ns
In O
  fluorescence lifetime: 1.47 ns

## Fc1nc(F)c(F)c(C#Cc2ccccc2C#Cc2c(F)c(F)nc(F)c2F)c1F
In CC#N
  fluorescence lifetime: 1.81 ns

## COC(=O)c1cc(=O)n(C)c2cc(-c3cc4c5c(c3)CCCN5CCC4)sc12
In ClCCl
  fluorescence lifetime: 2.25 ns

## Cc1nc(-c2cc(C(F)(F)F)ccc2O)n2c1CCCC2
In ClCCl
  fluorescence lifetime: 3.7 ns

## N#Cc1c(-n2c3ccccc3c3ccccc32)cc(N2c3ccccc3C(c3ccccc3)(c3ccccc3)c3ccccc32)cc1-n1c2ccccc2c2ccccc21
In Cc1ccccc1
  fluorescence lifetime: 18.4 ns

## COC(=O)[C@@]12N=N[C@@](C(=O)OC)(C3[C@H]1C3(C)C)[C@H]1[C@@H]2C1(C)C (some centres undefined)
In CC#N
  fluorescence lifetime: 101 ns

## Cc1cc(-c2nnc(-c3c(C(C)C)cc(C(C)C)cc3C(C)C)o2)ccc1-n1c2ccccc2c2ccccc21
In CCO
  fluorescence lifetime: 1.49 ns

## C[N+]1=c2ccc3c(c2C(C)(C)CC1)Oc1cc2c(cc1C=3c1ccccc1C(=O)O)C(c1ccccc1C(=O)O)=c1ccc3c(c1O2)C(C)(C)CC[N+]=3C
In ClC(Cl)Cl
  fluorescence lifetime: 2.48 ns

## F[B-]1(F)OC(C#Cc2ccccc2)=CC(c2ccccc2)=[O+]1
In ClCCl
  fluorescence lifetime: 0.94 ns

## O=S1(=O)c2ccc(-c3c4ccccc4cc4ccccc34)cc2-c2cc(-c3c4ccccc4cc4ccccc34)ccc21
In C1CCCCC1
  fluorescence lifetime: 3.2 ns
In CC#N
  fluorescence lifetime: 4.3 ns
In ClCCl
  fluorescence lifetime: 3.7 ns

## Cc1ccc(-n2cccc2)cc1
In CC#N
  fluorescence lifetime: 5.5 ns
In CCCCCC
  fluorescence lifetime: 4 ns

## COc1ccc(-c2cc3c(s2)c(C(=O)c2ccccc2)cc(=O)n3Cc2ccccc2)cc1
In ClCCl
  fluorescence lifetime: 5.3 ns

## C/C(=N\Nc1ccc(C#N)cc1)c1cccc(/C(C)=N/Nc2ccc(C#N)cc2)c1
In CO
  fluorescence lifetime: 1.27 ns

## COc1ccc(C2=c3sc(-c4ccc(OC)cc4)cc3=[N+]3C2=Nc2c(-c4ccc(OC)cc4)c4sc(-c5ccc(OC)cc5)cc4n2[B-]3(F)F)cc1
In ClC(Cl)Cl
  fluorescence lifetime: 1.69 ns

## Cc1cccc2nc3[nH]c(=O)[nH]c(=O)c3nc12
In CC#N
  fluorescence lifetime: 0.9 ns

## CCCCCCn1c2cc(/C=C(\C#N)c3ccccc3)ccc2c2ccc(/C=C(\C#N)c3ccccc3)cc21
In ClC(Cl)Cl
  fluorescence lifetime: 0.58 ns

## Cc1csc2[n+]1[B-](F)(F)n1c(c3cccc4cccc1c43)=N2
In ClCCl
  fluorescence lifetime: 6.5 ns

## O=C1c2ccc(-c3ccc(N(c4ccccc4)c4ccccc4)cc3)cc2C(=O)c2ccc(-c3ccc(N(c4ccccc4)c4ccccc4)cc3)cc21
In Cc1ccccc1
  fluorescence lifetime: 9 ns
In c1ccc2c(c1)c1ccccc1n2-c1ccc(-c2ccc(-n3c4ccccc4c4ccccc43)cc2)cc1
  fluorescence lifetime: 10.2 ns

## CC(C)c1cc(C(C)C)c(B2c3ccccc3Oc3cc(N4c5ccccc5C(C)(C)c5ccccc54)ccc32)c(C(C)C)c1
In Cc1ccccc1
  fluorescence lifetime: 33 ns

## O=c1oc2ccc3ccccc3c2nc1-c1ccccc1
In c1ccccc1
  fluorescence lifetime: 2.2 ns and 2.6 ns

## CCC1=C(C)C2=Cc3cc(I)c(I)n3[B-](F)(F)[N+]2=C1C
In C1CCCCC1
  fluorescence lifetime: 1.04 ns
In CC(C)=O
  fluorescence lifetime: 0.753 ns
In CCO
  fluorescence lifetime: 0.943 ns
In CCOC(C)=O
  fluorescence lifetime: 0.836 ns
In CO
  fluorescence lifetime: 0.848 ns
In OCC(F)(F)F
  fluorescence lifetime: 0.676 ns

## COC(=O)c1cc(=O)n(Cc2ccccc2)c2cc(-c3ccc(N(C)C)cc3)sc12
In ClCCl
  fluorescence lifetime: 1.86 ns

## Cc1nc(-c2cc(N)ccc2O)n2c1CCCC2
In ClCCl
  fluorescence lifetime: 0.834 ns

## CCOC(=O)CCCCCn1c2ccccc2c(=O)c2cc3c(cc21)c(=O)c1ccccc1n3CCCCCC(=O)OCC
In CO
  fluorescence lifetime: 21.6 ns

## CSc1ccc2c(c1)N(CCCN(C)C)c1ccccc1S2
In CC#N
  fluorescence lifetime: 1.16 ns
In CO
  fluorescence lifetime: 1.15 ns
In O
  fluorescence lifetime: 1.17 ns

## Nc1cccnc1
In C1CCCCC1
  fluorescence lifetime: 26.5 ns
In CC#N
  fluorescence lifetime: 4.6 ns
In CCO
  fluorescence lifetime: 6.5 ns
In CCOCC
  fluorescence lifetime: 7.7 ns
In O
  fluorescence lifetime: 21.1 ns

## c1ccc(N(c2ccccc2)c2ccc(-c3ccc4c(c3)C3(c5ccccc5Oc5ccccc53)c3cc(-c5ccc(N(c6ccccc6)c6ccccc6)cc5)ccc3-4)cc2)cc1
In ClCCl
  fluorescence lifetime: 1.2 ns

## COCCOCCOCCOCC(COCCOCCOCCOC)Oc1cc(/C=C/c2ccc(C=C(C#N)C#N)cc2)c(OC(COCCOCCOCCOC)COCCOCCOCCOC)cc1/C=C/c1ccc(C=C(C#N)C#N)cc1
In ClCCl
  fluorescence lifetime: 1.7 ns

## O=C1c2cc(F)ccc2-c2cnccc21
In CC#N
  fluorescence lifetime: 5.6 ns
In CCOC(C)=O
  fluorescence lifetime: 6.6 ns
In Cc1ccccc1
  fluorescence lifetime: 4.5 ns
In ClCCl
  fluorescence lifetime: 6.3 ns

## CCCCOc1ccc(/C=C/C=C/C=C/c2ccc([N+](=O)[O-])cc2)cc1
In Cc1ccccc1
  fluorescence lifetime: 1.7 ns

## O=S(=O)(c1ccc(-c2ccc(-n3c4ccccc4c4ccccc43)cc2)cc1)c1ccc(-c2ccc(-n3c4ccccc4c4ccccc43)cc2)cc1
In Cc1ccccc1
  fluorescence lifetime: 2.55 ns
